PubChem BioAssay (NCI)
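Cultured in 96-well plates, cells were exposed to test compound for 48 hours across five concentrations. The concentration for 50% growth inhibition is given as GI50. TGI: concentration producing complete growth inhibition.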

Legend:
Assay in all cases: growth of human tumour cells (NCI), 48 h
[1] = tested on: KM12 colon
[2] = tested on: OVCAR-3 ovarian
[3] = tested on: MOLT-4 leukemia
[4] = tested on: HS 578T breast
[5] = tested on: NCI-H23 lung
[6] = tested on: PC-3 prostate
[7] = tested on: SNB-19 CNS
[8] = tested on: TK-10 renal
[9] = tested on: CAKI-1 renal
[10] = tested on: RPMI-8226 leukemia
[11] = tested on: UO-31 renal
[12] = tested on: HL-60(TB) leukemia
[13] = tested on: M14 melanoma
[14] = tested on: SW-620 colon
[15] = tested on: MCF7 breast
[16] = tested on: CCRF-CEM leukemia
[17] = tested on: OVCAR-5 ovarian
[18] = tested on: ACHN renal
[19] = tested on: SF-268 CNS
[20] = tested on: SK-MEL-5 melanoma
[21] = tested on: HCT-15 colon
[22] = tested on: HT29 colon
[23] = tested on: HCT-116 colon
[24] = tested on: MALME-3M melanoma
[25] = tested on: SF-295 CNS
[26] = tested on: U251 CNS
[27] = tested on: BT-549 breast
[28] = tested on: LOX IMVI melanoma
[29] = tested on: MDA-MB-435
[30] = tested on: NCI-H522 lung
[31] = tested on: SNB-75 CNS
[32] = tested on: K-562 leukemia
[33] = tested on: UACC-257 melanoma
[34] = tested on: NCI/ADR-RES ovarian
[35] = tested on: T-47D breast
[36] = tested on: HOP-62 NSCLC
[37] = tested on: EKVX NSCLC
[38] = tested on: RXF 393 renal
[39] = tested on: UACC-62 melanoma
[40] = tested on: HOP-92 NSCLC
[41] = tested on: SK-OV-3 ovarian
[42] = tested on: SN12C renal
[43] = tested on: SK-MEL-2 melanoma
[44] = tested on: NCI-H226 lung
[45] = tested on: MDA-MB-231 breast
[46] = tested on: NCI-H460 lung
[47] = tested on: A549 NSCLC
[48] = tested on: SR leukemia
[49] = tested on: SF-539 CNS
[50] = tested on: HCC-2998 colon
[51] = tested on: IGROV1 ovarian
[52] = tested on: 786-0 renal
[53] = tested on: SK-MEL-28 melanoma
[54] = tested on: OVCAR-8 ovarian
[55] = tested on: OVCAR-4 ovarian
[56] = tested on: COLO 205 colon
[57] = tested on: A498 renal
[58] = tested on: DU-145 prostate

Q: For `COc1cnc2c(c1)C(=O)c1c-2n(CCCn2ccnc2)c(=O)c2cc(OC)c(OC)cc12`, which GI50 [1] is on record?
A: The GI50 was 1670 nM.

Q: What about the TGI [1] of the same compound?
A: The TGI was 7690 nM.

Q: What about the GI50 [2] of the same compound?
A: The GI50 was 594 nM.

Q: What about the TGI [2] of the same compound?
A: Its TGI is 2010 nM.

Q: What about the GI50 [3] of the same compound?
A: Its GI50 is 36.7 nM.

Q: What about the TGI [3] of the same compound?
A: Its TGI is 2530 nM.

Q: And the GI50 [4]?
A: Its GI50 is 4770 nM.

Q: And the TGI [4]?
A: The TGI was 17500 nM.

Q: What about the GI50 [5] of the same compound?
A: Its GI50 is 72.1 nM.

Q: And the TGI [5]?
A: The TGI was 1620 nM.

Q: And the GI50 [6]?
A: The GI50 was 631 nM.

Q: And the TGI [6]?
A: Its TGI is 8450 nM.

Q: And the GI50 [7]?
A: Its GI50 is 68 nM.

Q: And the TGI [7]?
A: Its TGI is 13300 nM.

Q: And the GI50 [8]?
A: The GI50 was 2940 nM.

Q: What about the TGI [8] of the same compound?
A: Its TGI is 8090 nM.

Q: What about the GI50 [9] of the same compound?
A: The GI50 was 39.1 nM.

Q: What about the TGI [9] of the same compound?
A: The TGI was 3410 nM.

Q: And the GI50 [10]?
A: The GI50 was 167 nM.

Q: What about the TGI [10] of the same compound?
A: The TGI was 3580 nM.

Q: What about the GI50 [11] of the same compound?
A: The GI50 was 65.9 nM.

Q: What about the TGI [11] of the same compound?
A: Its TGI is 1370 nM.

Q: And the GI50 [12]?
A: Its GI50 is 45 nM.

Q: And the TGI [12]?
A: Its TGI is 3670 nM.

Q: And the GI50 [13]?
A: The GI50 was 60 nM.

Q: And the TGI [13]?
A: Its TGI is 1410 nM.

Q: What about the GI50 [14] of the same compound?
A: The GI50 was 127 nM.

Q: And the TGI [14]?
A: The TGI was 2130 nM.

Q: What about the GI50 [15] of the same compound?
A: The GI50 was 29.8 nM.

Q: And the TGI [15]?
A: Its TGI is 1400 nM.

Q: And the GI50 [16]?
A: The GI50 was 35.3 nM.

Q: And the TGI [16]?
A: The TGI was 4470 nM.

Q: What about the GI50 [17] of the same compound?
A: Its GI50 is 1030 nM.

Q: What about the TGI [17] of the same compound?
A: The TGI was 3100 nM.

Q: What about the GI50 [18] of the same compound?
A: The GI50 was 37.6 nM.

Q: What about the TGI [18] of the same compound?
A: The TGI was 1090 nM.

Q: And the GI50 [19]?
A: The GI50 was 72.9 nM.

Q: And the TGI [19]?
A: The TGI was 14100 nM.

Q: And the GI50 [20]?
A: The GI50 was 258 nM.

Q: And the TGI [20]?
A: The TGI was 1480 nM.

Q: And the GI50 [21]?
A: The GI50 was 1210 nM.

Q: What about the TGI [21] of the same compound?
A: Its TGI is 3140 nM.

Q: What about the GI50 [22] of the same compound?
A: The GI50 was 242 nM.

Q: What about the TGI [22] of the same compound?
A: Its TGI is 1750 nM.

Q: And the GI50 [23]?
A: The GI50 was 113 nM.

Q: What about the TGI [23] of the same compound?
A: Its TGI is 1710 nM.

Q: And the GI50 [24]?
A: Its GI50 is 1390 nM.

Q: And the TGI [24]?
A: Its TGI is 3040 nM.

Q: What about the GI50 [25] of the same compound?
A: The GI50 was 38.1 nM.

Q: What about the TGI [25] of the same compound?
A: Its TGI is 1410 nM.

Q: What about the GI50 [26] of the same compound?
A: Its GI50 is 48.1 nM.

Q: What about the TGI [26] of the same compound?
A: The TGI was 3280 nM.

Q: And the GI50 [27]?
A: The GI50 was 416 nM.

Q: And the TGI [27]?
A: The TGI was 6620 nM.

Q: And the GI50 [28]?
A: The GI50 was 42.2 nM.

Q: What about the TGI [28] of the same compound?
A: Its TGI is 1120 nM.

Q: What about the GI50 [29] of the same compound?
A: The GI50 was 710 nM.

Q: And the TGI [29]?
A: The TGI was 4790 nM.

Q: And the GI50 [30]?
A: Its GI50 is 80.3 nM.

Q: What about the TGI [30] of the same compound?
A: Its TGI is 1610 nM.

Q: And the GI50 [31]?
A: Its GI50 is 67.3 nM.

Q: And the TGI [31]?
A: The TGI was 1210 nM.

Q: And the GI50 [32]?
A: Its GI50 is 85.2 nM.

Q: What about the TGI [32] of the same compound?
A: The TGI was 5860 nM.

Q: And the GI50 [33]?
A: Its GI50 is 627 nM.

Q: What about the TGI [33] of the same compound?
A: The TGI was 2780 nM.

Q: And the GI50 [34]?
A: The GI50 was 361 nM.

Q: And the TGI [34]?
A: The TGI was 4410 nM.

Q: And the GI50 [35]?
A: The GI50 was 41.1 nM.

Q: And the TGI [35]?
A: The TGI was 1900 nM.

Q: And the GI50 [36]?
A: Its GI50 is 41.9 nM.

Q: What about the TGI [36] of the same compound?
A: Its TGI is 1300 nM.

Q: And the GI50 [37]?
A: Its GI50 is 1680 nM.

Q: And the TGI [37]?
A: Its TGI is 7240 nM.

Q: What about the GI50 [38] of the same compound?
A: Its GI50 is 354 nM.

Q: What about the TGI [38] of the same compound?
A: The TGI was 2190 nM.

Q: What about the GI50 [39] of the same compound?
A: The GI50 was 40.1 nM.

Q: What about the TGI [39] of the same compound?
A: Its TGI is 1470 nM.

Q: And the GI50 [40]?
A: Its GI50 is 935 nM.

Q: What about the TGI [40] of the same compound?
A: Its TGI is 10800 nM.

Q: And the GI50 [41]?
A: The GI50 was 119 nM.

Q: And the TGI [41]?
A: The TGI was 2270 nM.

Q: What about the GI50 [42] of the same compound?
A: The GI50 was 56.3 nM.

Q: What about the TGI [42] of the same compound?
A: The TGI was 4020 nM.

Q: What about the GI50 [43] of the same compound?
A: Its GI50 is 17300 nM.

Q: What about the TGI [43] of the same compound?
A: The TGI was 31500 nM.

Q: What about the GI50 [44] of the same compound?
A: Its GI50 is 190 nM.

Q: And the TGI [44]?
A: Its TGI is 5000 nM.

Q: And the GI50 [45]?
A: Its GI50 is 3550 nM.

Q: And the TGI [45]?
A: The TGI was 11900 nM.

Q: And the GI50 [46]?
A: Its GI50 is 36.5 nM.

Q: And the TGI [46]?
A: Its TGI is 1320 nM.

Q: And the GI50 [47]?
A: Its GI50 is 465 nM.

Q: And the TGI [47]?
A: Its TGI is 11700 nM.

Q: What about the GI50 [48] of the same compound?
A: The GI50 was 20.4 nM.

Q: And the TGI [48]?
A: The TGI was 6640 nM.

Q: What about the GI50 [49] of the same compound?
A: Its GI50 is 52.7 nM.

Q: And the TGI [49]?
A: The TGI was 889 nM.

Q: And the GI50 [50]?
A: Its GI50 is 899 nM.

Q: And the TGI [50]?
A: The TGI was 3060 nM.

Q: What about the GI50 [51] of the same compound?
A: Its GI50 is 1240 nM.

Q: And the TGI [51]?
A: Its TGI is 6210 nM.

Q: And the GI50 [52]?
A: The GI50 was 55.1 nM.

Q: And the TGI [52]?
A: The TGI was 1280 nM.

Q: And the GI50 [53]?
A: Its GI50 is 1310 nM.

Q: What about the TGI [53] of the same compound?
A: The TGI was 3610 nM.

Q: What about the GI50 [54] of the same compound?
A: Its GI50 is 419 nM.

Q: What about the TGI [54] of the same compound?
A: The TGI was 2950 nM.

Q: What about the GI50 [55] of the same compound?
A: Its GI50 is 1540 nM.

Q: And the TGI [55]?
A: The TGI was 3530 nM.

Q: What about the GI50 [56] of the same compound?
A: The GI50 was 654 nM.

Q: What about the TGI [56] of the same compound?
A: Its TGI is 2380 nM.

Q: And the GI50 [57]?
A: Its GI50 is 9440 nM.

Q: And the TGI [57]?
A: The TGI was 23300 nM.

Q: And the GI50 [58]?
A: The GI50 was 60.8 nM.

Q: And the TGI [58]?
A: Its TGI is 1900 nM.
